The text below walks through data of patent US20110082101A1, “COMBINATIONS COMPRISING EPOTHILONES AND ANTI-METABOLITES” (priority 2002, published 2011).

SMILES strings stand for the structures.

The subject of one test is advanced renal cancer. In words: Treatment of a human patient having advanced renal cancer with epothilone B plus capecitabine. The note with it: Example 1, one human patient, combination: epothilone B 0.5 mg/m^2 five minutes bolus infusion weekly for 3 weeks, one week off, plus capecitabine orally 1250 mg/m^2 twice daily for two weeks, cycle repeated several times. It counts as in vivo. The procedure: A human patient having advanced renal cancer receives 0.5 mg/m^2 of epothilone B as a five minutes bolus infusion weekly for 3 weeks followed by one week off. Starting in the second week of the epothilone treatment and at least two hours after said treatment, capecitabine is applied orally to said patient twice daily at a dosage of 1250 mg/m^2 for two weeks followed by one week off. The whole treatment cycle is applied to the patient several times. Stable disease is observed for about 8 months.

In another test the test system is advanced colon cancer. In words: Treatment of a human patient having advanced colon cancer with epothilone B plus gemcitabine hydrochloride. Type of test: in vivo. Conditions: Example 5, one human patient, combination: epothilone B 0.5 mg/m^2 five minutes bolus infusion weekly for 3 weeks, one week off, plus gemcitabine hydrochloride 800 mg/m^2 twice daily, cycle repeated several times. The procedure:
A human patient having advanced colon cancer receives 0.5 mg/m^2 of epothilone B as a five minutes bolus infusion weekly for 3 weeks followed by one week off. Immediately following said treatment, gemcitabine hydrochloride is applied orally to said patient twice daily at a dosage of 800 mg/m^2. The whole treatment cycle is applied to the patient several times. Stable disease is observed for about […] months.

Consider `C/C(=C\c1csc(C)n1)[C@@H]1C[C@@H]2O[C@]2(C)CCC[C@H](C)[C@H](O)[C@@H](C)C(=O)C(C)(C)[C@@H](O)CC(=O)O1` [epothilone B], for which the “Stable disease observed for (duration)” value with advanced renal cancer is on record as “about 8 months”; with advanced colon cancer, “about 3%”.
